According to patent publication US7713994B2 (Wyeth LLC, priority 2005, dated 2010):
Read-outs that look alike come from different tables or passages of the source.

Tests used:
LoVo = test: Cytotoxicity assay (SRB), LoVo; format: cell-based; details: Homo sapiens, LoVo, 72 h, LoVo cells, SRB, read-out: In Vitro Cellular Activity IC50 LOVO
Summary of the method: (§1)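 Overnight-seeded monolayers (4000–12000 cells/well by line) receive compound in 5% FBS medium at 37 °C, 7% CO2. After 3 d, or 6 d for BT474, cellular protein is fixed with cold TCA, stained with SRB and read at 540 nm against untreated wells.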

BT474 = test: Cytotoxicity assay (SRB), BT474; format: cell-based
Summary of the method: as §1

MCF-7 = test: Cytotoxicity assay (SRB), MCF-7; format: cell-based; details: Homo sapiens, MCF7, 72 h, MCF-7 cells, SRB, read-out: In Vitro Cellular Activity IC50 MCF-7
Summary of the method: as §1

cyclin E/CDK2 enzyme = target: T1, cyclin E/CDK2 enzyme (Homo sapiens, UniProt P24941); test: CDK2 ELISA kinase assay (phospho-Rb ser 795 detection); format: biochemical
T1 construct: made in house; host or cells: Sf9 insect cells, recombinant baculovirus
Summary of the method: (§2)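 Wells were coated overnight with GST-Rb C-terminal fragment, then blocked. Compound (10 ug/ml final) and cyclin/CDK enzyme from baculovirus-infected Sf9 cells with 200 μM ATP reacted 1 h at 30° C. Ser795 phosphorylation was detected by ELISA at 450 nm.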

HCT-116 = test: Cytotoxicity assay (SRB), HCT-116; format: cell-based; details: Homo sapiens, HCT-116, 72 h, HCT116 cells, SRB, read-out: In Vitro Cellular Activity IC50 HCT116
Summary of the method: as §1

cyclin B/CDK1 enzyme = target: T2, cyclin B/CDK1 enzyme (Homo sapiens, UniProt P06493); test: CDK1 ELISA kinase assay (phospho-Rb ser 795 detection); format: biochemical
T2 construct: purchased New England BioLabs; host or cells: Sf9 insect cells, recombinant baculovirus
T2 sequence (P06493 whole entry): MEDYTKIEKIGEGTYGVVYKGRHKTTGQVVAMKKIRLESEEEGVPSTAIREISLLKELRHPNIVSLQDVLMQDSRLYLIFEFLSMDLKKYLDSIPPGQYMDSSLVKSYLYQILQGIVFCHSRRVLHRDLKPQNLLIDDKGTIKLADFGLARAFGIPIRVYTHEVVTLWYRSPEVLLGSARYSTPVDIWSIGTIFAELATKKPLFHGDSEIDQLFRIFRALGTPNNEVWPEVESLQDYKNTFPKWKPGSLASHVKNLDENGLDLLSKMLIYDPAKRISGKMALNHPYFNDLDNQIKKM
T2 sequence (P14635 whole entry partner): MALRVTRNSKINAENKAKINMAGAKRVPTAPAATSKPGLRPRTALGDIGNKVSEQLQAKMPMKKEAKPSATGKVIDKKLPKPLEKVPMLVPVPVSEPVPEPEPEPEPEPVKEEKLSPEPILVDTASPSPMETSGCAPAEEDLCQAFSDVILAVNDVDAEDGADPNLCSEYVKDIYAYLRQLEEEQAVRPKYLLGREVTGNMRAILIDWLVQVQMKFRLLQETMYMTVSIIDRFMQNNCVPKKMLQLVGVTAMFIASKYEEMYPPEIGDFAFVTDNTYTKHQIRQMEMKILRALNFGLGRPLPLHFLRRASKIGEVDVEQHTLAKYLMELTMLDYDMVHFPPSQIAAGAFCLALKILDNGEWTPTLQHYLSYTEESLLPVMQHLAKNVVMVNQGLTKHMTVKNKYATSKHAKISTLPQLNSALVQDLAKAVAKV
Summary of the method: as §2

cyclin D1/cdk 4 enzyme = target: T3, cyclin D1/cdk 4 enzyme (Homo sapiens, UniProt P11802); test: CDK4 ELISA kinase assay (phospho-Rb ser 795 detection); format: biochemical; details: 200 μM ATP
T3 construct: made in house; host or cells: Sf9 insect cells, recombinant baculovirus
T3 sequence (P11802 whole entry, species assumed): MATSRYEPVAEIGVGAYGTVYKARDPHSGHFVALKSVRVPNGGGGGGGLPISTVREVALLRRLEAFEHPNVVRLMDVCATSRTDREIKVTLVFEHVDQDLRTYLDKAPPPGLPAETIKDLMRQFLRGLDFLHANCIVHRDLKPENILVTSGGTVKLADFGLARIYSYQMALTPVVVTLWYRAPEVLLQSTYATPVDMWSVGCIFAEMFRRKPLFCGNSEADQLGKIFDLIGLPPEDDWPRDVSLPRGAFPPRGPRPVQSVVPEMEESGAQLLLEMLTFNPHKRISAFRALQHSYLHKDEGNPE
T3 sequence (P24385 whole entry partner, species assumed): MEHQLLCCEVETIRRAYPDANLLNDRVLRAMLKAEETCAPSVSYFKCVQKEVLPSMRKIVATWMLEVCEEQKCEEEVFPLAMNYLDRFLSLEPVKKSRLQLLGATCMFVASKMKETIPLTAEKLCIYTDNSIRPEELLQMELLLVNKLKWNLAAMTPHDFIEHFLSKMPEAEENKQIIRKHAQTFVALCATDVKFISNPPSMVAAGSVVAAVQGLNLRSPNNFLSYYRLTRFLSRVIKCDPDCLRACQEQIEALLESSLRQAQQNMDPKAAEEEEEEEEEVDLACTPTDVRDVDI
Summary of the method: as §2

[1] = Homo sapiens, BT-474, 144 h, BT474 cells, 6 days, SRB; read-out: In Vitro Cellular Activity IC50 BT474
[2] = In Vitro Enzyme Assays, read-out: CDK2 IC50
[3] = In Vitro Enzyme Assays, read-out: CDK1 IC50
[4] = In Vitro Enzyme Assays, read-out: CDK4 IC50
[5] = Homo sapiens, BT-474, 144 h, BT474 cells, SRB, 6 days; read-out: In Vitro Cellular Activity IC50 BT474

SMILES	IC50 (LoVo; 3 days) [µM]	IC50 (BT474; [1]) [µM]	melting point	IC50 (MCF-7; 3 days) [µM]	IC50 (cyclin E/CDK2 enzyme; [2]) [µM]	IC50 (HCT-116; 3 days) [µM]	IC50 (cyclin B/CDK1 enzyme; [3]) [µM]	IC50 (cyclin D1/cdk 4 enzyme; [4]) [µM]	IC50 (LoVo; three days) [µM]	IC50 (BT474; [5]) [µM]	IC50 (MCF-7; three days) [µM]	IC50 (HCT-116; three days) [µM]	IC50 (cyclin E/CDK2 enzyme; CDK2 IC50, In Vitro Enzyme Assays) [µM]	IC50 (cyclin B/CDK1 enzyme; CDK1 IC50, In Vitro Enzyme Assays) [µM]	IC50 (cyclin D1/cdk 4 enzyme; CDK4 IC50, In Vitro Enzyme Assays) [µM]
O=C1NC(=O)c2ccc(-c3ccsc3)cc2/C1=C/Nc1ccc(N2CCC(N3CCCC3)CC2)c(F)c1 [Example 406, (4Z)-4-({[3-Fluoro-4-(4-pyrrolidin-1-ylpiperidin-1-yl)phenyl]amino}methylene)-6-thien-3-ylisoquinoline-1,3(2H,4H)-dione]	2.7	3.9	200 to 201 °C	3.4	49.7	2.6	31.7	0.09	–	–	–	–	–	–	–
O=C1NC(=O)c2ccc(Br)cc2/C1=C/NCc1ccc(OC(F)F)c(O)c1 [Example 180]	–	–	256 to 258 °C	–	> 50	–	> 50	0.07	6.2	5.1	15	5.9	–	–	–
COc1coc(CNC=C2C(=O)NC(=O)c3ccc(Br)cc32)cc1=O [Example 316, 6-Bromo-4-{[(5-methoxy-4-oxo-4H-pyran-2-ylmethyl)-amino]-methylene}-4H-isoquinoline-1,3-dione]	–	–	259 to 261 °C (dec.)	–	16.9	–	> 50	1.3	5.7	4.9	9	8.9	–	–	–
C[C@@H]1CN(c2c(F)cc(N/C=C3\C(=O)NC(=O)c4ccc(-c5ccsc5)cc43)cc2F)C[C@H](C)N1 [Example 383, (4Z)-4-[({4-[(3R,5S)-3,5-Dimethylpiperazin-1-yl]-3,5-difluorophenyl}amino)methylene]-6-thien-3-ylisoquinoline-1,3(2H,4H)-dione]	–	–	195 to 196 °C	–	25.9	–	14.4	0.45	2.6	1.3	2.1	0.84	–	–	–
COc1ccc(-c2ccc3c(c2)/C(=C/Nc2cnc(N4C[C@@H](C)N[C@@H](C)C4)c(C)c2)C(=O)NC3=O)cc1 [Example 357, (4Z)-4-[({6-[(3R,5S)-3,5-Dimethylpiperazin-1-yl]-5-methylpyridin-3-yl}amino)methylene]-6-(4-methoxyphenyl)isoquinoline-1,3(2H,4H)-dione]	–	–	213 to 214 °C	–	> 50	–	> 50	31	2.8	2.5	1.6	1.1	–	–	–
O=C1NC(=O)c2ccc(I)cc2/C1=C/Nc1ccc(CN2CCC(O)CC2)cc1 [Example 440, (4Z)-4-[({4-[(4-Hydroxypiperidin-1-yl)methyl]phenyl}amino)methylene]-6-iodoisoquinoline-1,3(2H,4H)-dione]	4	1.6	255 to 256 °C	1.6	19.3	3.2	27.7	0.35	–	–	–	–	–	–	–
Nc1ccc(CN/C=C2\C(=O)NC(=O)c3ccc(Br)cc32)cc1O [Example 227, (4Z)-4-{[(4-Amino-3-hydroxybenzyl)amino]methylene}-6-bromoisoquinoline-1,3(2H,4H)-dione]	–	–	245 to 246 °C	–	6.7	–	> 50	0.08	37	–	> 50	44	–	–	–
CCCOc1ccc(CN/C=C2\C(=O)NC(=O)c3ccc(NC(=O)c4ccco4)cc32)cc1O [Example 197]	–	–	233 to 234 °C	–	> 50	–	> 50	12.3	–	–	–	–	–	–	–
O=C(O)CCCN/C=C1\C(=O)NC(=O)c2ccc(-n3cccc3)cc21 [Example 315, (Z)-4-((1,3-Dioxo-6-(1H-pyrrol-1-yl)-2,3-dihydroisoquinolin-4(1H)-ylidene)methylamino)butanoic acid]	–	–	230 to 240 °C (dec.)	–	31	–	43.4	0.19	–	–	–	–	–	–	–
O=C(O)CCCN/C=C1\C(=O)NC(=O)c2ccc(Br)cc21 [Example 314, (Z)-4-((6-Bromo-1,3-dioxo-2,3-dihydroisoquinolin-4(1H)-ylidene)methylamino)butanoic acid]	–	–	260 to 262 °C (dec.)	–	37.1	–	> 50	1.5	–	–	–	–	–	–	–
CC(N)(C(=O)O)c1ccc(NC=C2C(=O)NC(=O)c3ccc(Br)cc32)cc1 (stereo not shown) [Example 277, 2-Amino-2-{4-[(6-bromo-1,3-dioxo-2,3-dihydro-1H-isoquinolin-4-ylidenemethyl)-amino]-phenyl}-propionic acid]	–	–	250 to 253 °C	–	39.7	–	> 50	35.5	–	–	–	–	–	–	–
COc1cc2c(cc1OC)/C(=C/Nc1ccc(N3CCN(C)CC3)cc1)C(=O)NC2=O [Example 37, (4Z)-6,7-Dimethoxy-4-({[4-(-methylpiperazin-1-yl)phenyl}amino)methylene] isoquinolin-1,3(2H,4H)-dione]	–	–	273 to 274 °C	–	> 50	–	> 50	14.8	–	–	–	–	–	–	–
CCN(CC)C(=O)Oc1cc(CN/C=C2\C(=O)NC(=O)c3ccc(I)cc32)ccc1OC [Example 99, 5-({[(Z)-(6-Iodo-1,3-dioxo-2,3-dihydroisoquinolin-4(1H)-ylidene)methyl]amino}methyl)-2-methoxyphenyl diethylcarbamate]	–	–	128 to 130 °C	–	–	–	–	–	–	–	–	–	> 50	> 50	1.4
CN1CCN(c2ccc(N/C=C3\C(=O)NC(=O)c4ccc(-c5ccoc5)cc43)nc2)CC1 [Example 443, (4Z)-6-(3-Furyl)-4-({[5-(4-methylpiperazin-1-yl)pyridin-2-yl]amino}methylene)isoquinoline-1,3(2H,4H)-dione]	0.85	0.65	262 to 263 °C	–	> 50	–	> 50	0.13	–	–	–	–	–	–	–
O=C1NC(=O)c2ccc(Br)cc2/C1=C/NCc1ccc(O)cc1 [Example 62]	–	–	296 to 297 °C	–	4.5	–	> 50	31.1	–	–	–	–	–	–	–
CN1CCN(c2ccc(N/C=C3\C(=O)NC(=O)c4ccc(C(=O)N(C)C)cc43)cc2)CC1 [Example 65, (4Z)-N,N-Dimethyl-4-({[4-(4-methylpiperazin-1-yl)phenyl]amino}methylene)-1,3-dioxo-1,2,3,4-tetrahydroisoquinoline-6-carboxamide]	–	–	> 300 °C	–	47	–	> 50	41	–	–	–	–	–	–	–
O=C1NC(=O)c2ccc(Br)cc2/C1=C/Nc1ccc(O)c(C(=O)O)c1 [Example 58, 5-{[(Z)-(6-Bromo-1,3-dioxo-2,3-dihydroisoquinolin-4(1H)-ylidene)methyl]amino}-2-hydroxybenzoic acid]	–	–	336 to 337 °C	–	19.4	–	31.8	12.4	–	–	–	–	–	–	–
